This experiment concerns the target OROV Endo-Nter (N-terminal endonuclease domain of the OROV RNA polymerase, L protein) (Oropouche virus, UniProt A0A0B5CUJ1). Kind of experiment: FRET cleavage assay of dual-labelled DNA. The format is biochemical.

Structures are written as SMILES.

The term IC50 denotes the concentration that gives 50% inhibition. The low end stands for greater potency in that assay, the high end for weaker potency in that assay. In the case of `COc1cc(O)c2c(c1)oc(=O)c1c3cc(O)c(O)cc3oc21` [WDL, 7‑methoxy 5,11,12-trihydroxy-coumestan], it took 310 ± 8 nM to reach half-maximal inhibition (IC50).

The values are drawn from publication PMC11090880 (Current Research in Microbial Sciences, 2024).
